Results on one compound are retold here after PubChem BioAssay AID1671275.

The target of the assay is Ephrin type-B receptor 3 (Homo sapiens) (UniProt P54753). Description: inhibition of human ephrin receptor B3 activity – biochemical, Z'-LYTE, FRET, protease-coupled, direct format, dose response (AID 1671275). Conditions: Z'-LYTE FRET kinase activity assay, recombinant EPHB3.
Sequence of Ephrin type-B receptor 3 (Homo sapiens) (P54753 whole entry, looked up): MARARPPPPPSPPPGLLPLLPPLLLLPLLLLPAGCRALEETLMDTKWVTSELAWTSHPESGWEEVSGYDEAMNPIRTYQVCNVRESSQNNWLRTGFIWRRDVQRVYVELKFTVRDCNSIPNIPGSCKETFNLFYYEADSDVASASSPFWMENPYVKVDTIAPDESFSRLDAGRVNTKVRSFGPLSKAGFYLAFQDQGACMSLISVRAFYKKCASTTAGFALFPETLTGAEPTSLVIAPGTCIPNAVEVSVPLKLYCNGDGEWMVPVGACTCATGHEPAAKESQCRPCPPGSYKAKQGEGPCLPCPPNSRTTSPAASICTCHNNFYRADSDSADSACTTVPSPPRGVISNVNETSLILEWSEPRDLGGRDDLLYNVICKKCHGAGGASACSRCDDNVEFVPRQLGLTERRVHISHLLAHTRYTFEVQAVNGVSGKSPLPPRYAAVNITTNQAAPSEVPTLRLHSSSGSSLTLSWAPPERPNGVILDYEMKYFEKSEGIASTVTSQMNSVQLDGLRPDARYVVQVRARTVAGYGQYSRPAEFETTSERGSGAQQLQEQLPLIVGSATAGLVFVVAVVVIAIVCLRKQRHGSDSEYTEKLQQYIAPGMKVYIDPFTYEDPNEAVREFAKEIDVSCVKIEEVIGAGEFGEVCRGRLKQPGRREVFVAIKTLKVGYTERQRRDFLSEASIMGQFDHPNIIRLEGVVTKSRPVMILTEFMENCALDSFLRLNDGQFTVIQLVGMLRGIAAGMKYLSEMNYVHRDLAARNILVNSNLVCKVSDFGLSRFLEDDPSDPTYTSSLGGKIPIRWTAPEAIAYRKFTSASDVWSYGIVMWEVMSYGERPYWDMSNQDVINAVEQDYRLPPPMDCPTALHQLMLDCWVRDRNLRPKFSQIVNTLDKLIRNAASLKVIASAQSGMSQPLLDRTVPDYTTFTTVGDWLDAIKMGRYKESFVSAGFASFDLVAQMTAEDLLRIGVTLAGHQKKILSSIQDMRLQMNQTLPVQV

As for `CC(C)(C)n1nc(-c2ccc(Cl)cc2)c2c(N)ncnc21`, the IC50 (as a rule, the concentration that inhibits the measured activity by half) was 763 nM.
